The source of these data is patent US9156829B2, “Cycloalkyl and heterocycloalkyl compounds as orexin receptor antagonists” (Takeda Pharmaceutical Company Limited, priority 2014, dated 2015).

One test concerns the target human orexin receptor 2 (Homo sapiens (Human), UniProt O43614). Kind of test: Orexin antagonist activity, intracellular calcium FLIPR assay, RBL-2H3 cells expressing human orexin receptor 2. Format: cell-based. The following applies: RBL-2H3 cells stably expressing human orexin receptor 2; orexin-A at approx. 80% maximal response; compound added 15 minutes before; read-out: Human Orexin2R IC50. For orientation: Calcium assays in cells follow changes in intracellular calcium, usually with a dye or a luminescent sensor.

Another test deals with human orexin receptor 1 (Homo sapiens (Human), UniProt O43613). Briefly: Orexin antagonist activity, intracellular calcium FLIPR assay, RBL-2H3 cells expressing human orexin receptor 1. Format: cell-based. The note with it: RBL-2H3 cells stably expressing human orexin receptor 1; orexin-A at approx. 80% maximal response; compound added 15 minutes before; read-out: Human Orexin1R IC50.
Chain of human orexin receptor 1 (O43613 whole entry): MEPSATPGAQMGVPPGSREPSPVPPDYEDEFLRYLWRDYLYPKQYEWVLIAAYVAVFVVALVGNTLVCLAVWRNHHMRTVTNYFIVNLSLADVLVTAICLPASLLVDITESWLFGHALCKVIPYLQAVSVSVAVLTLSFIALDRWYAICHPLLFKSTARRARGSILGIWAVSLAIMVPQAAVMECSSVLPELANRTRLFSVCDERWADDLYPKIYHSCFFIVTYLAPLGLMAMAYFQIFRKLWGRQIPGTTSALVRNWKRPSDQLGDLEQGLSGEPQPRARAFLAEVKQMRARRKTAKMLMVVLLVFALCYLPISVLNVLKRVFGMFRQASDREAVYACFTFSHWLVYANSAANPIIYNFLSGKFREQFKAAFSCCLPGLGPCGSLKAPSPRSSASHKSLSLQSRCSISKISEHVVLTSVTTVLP

Chain of human orexin receptor 2 (O43614 whole entry): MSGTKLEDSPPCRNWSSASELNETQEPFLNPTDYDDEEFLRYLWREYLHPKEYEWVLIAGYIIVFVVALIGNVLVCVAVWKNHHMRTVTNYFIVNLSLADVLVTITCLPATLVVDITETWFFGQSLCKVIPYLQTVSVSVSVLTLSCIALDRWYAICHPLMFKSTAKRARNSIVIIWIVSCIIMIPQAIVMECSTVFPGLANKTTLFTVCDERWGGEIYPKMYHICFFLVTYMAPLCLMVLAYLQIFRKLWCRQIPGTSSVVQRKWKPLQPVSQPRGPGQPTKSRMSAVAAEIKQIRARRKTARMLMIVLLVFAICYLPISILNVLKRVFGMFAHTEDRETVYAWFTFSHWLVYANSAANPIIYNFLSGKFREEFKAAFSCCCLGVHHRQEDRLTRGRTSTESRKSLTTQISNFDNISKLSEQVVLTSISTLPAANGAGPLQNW

`O=C(N[C@H]1CCC[C@@H]1Nc1cnc(C(F)(F)F)cn1)c1ccccc1-c1ncccn1` [Example 38, 2-(Pyrimidin-2-yl)-N-[(1S,2S)-2-{[5-(trifluoromethyl)pyrazin-2-yl]amino}cyclopentyl]benzamide]: the IC50 at human orexin receptor 2 is greater than 10000 nM; at human orexin receptor 1, 49 nM.
For `O=C(N[C@H]1CCC[C@@H]1Nc1cnc(C(F)(F)F)cn1)c1cc(F)ccc1-c1ncccn1` [Example 39, 5-Fluoro-2-(pyrimidin-2-yl)-N-[(1S,2S)-2-{[5-(trifluoromethyl)pyrazin-2-yl]amino}cyclopentyl]benzamide], the IC50 at human orexin receptor 2 was greater than 10000 nM; on human orexin receptor 1, 81 nM.
`O=C(N[C@H]1CCC[C@@H]1Nc1cnc(C(F)(F)F)cn1)c1c(Cl)cccc1-n1nccn1` [Example 40, 2-Chloro-6-(2H-1,2,3-triazol-2-yl)-N-[(1S,2S)-2-{[5-(trifluoromethyl)pyrazin-2-yl]amino}cyclopentyl]benzamide]: the figures for the half-inhibitory concentration (IC50) on human orexin receptor 2 and at human orexin receptor 1 were greater than 10000 nM and 35 nM, respectively.
Taken in the same sequence, the figures for `O=C(N[C@H]1CCC[C@@H]1Nc1cnc(C(F)(F)F)cn1)c1cc(F)ccc1-n1ccnn1` [Example 41, 5-Fluoro-2-(1H-1,2,3-triazol-1-yl)-N-[(1S,2S)-2-{[5-(trifluoromethyl)pyrazin-2-yl]amino}cyclopentyl]benzamide] were greater than 10000 nM and 644 nM.
The corresponding values for `Cc1ccc(-n2ccnn2)c(C(=O)N[C@H]2CCC[C@@H]2Nc2cnc(C(F)(F)F)cn2)c1` [Example 42, 5-Methyl-2-(1H-1,2,3-triazol-1-yl)-N-[(1S,2S)-2-{[5-(trifluoromethyl)pyrazin-2-yl]amino}cyclopentyl]benzamide] are greater than 10000 nM and 261 nM.
As for `O=C(N[C@H]1CCC[C@@H]1Nc1cnc(C(F)(F)F)cn1)c1ncccc1-n1cccn1` [Example 43, 3-(1H-Pyrazol-1-yl)-N-[(1S,2S)-2-{[5-(trifluoromethyl)pyrazin-2-yl]amino}cyclopentyl]pyridine-2-carboxamide], the IC50 is greater than 10000 nM on human orexin receptor 2 and 289 nM at human orexin receptor 1.
The corresponding values for `Cc1nnc(-c2ccccc2C(=O)N[C@H]2CCC[C@@H]2Nc2cnc(C(F)(F)F)cn2)o1` [Example 44, 2-(5-Methyl-1,3,4-oxadiazol-2-yl)-N-[(1S,2S)-2-{[5-(trifluoromethyl)pyrazin-2-yl]amino}cyclopentyl]benzamide] are greater than 10000 nM and 199 nM.
Taken in the same sequence, the figures for `O=C(N[C@H]1CCC[C@@H]1Nc1cnc(C(F)(F)F)cn1)c1cc(C(F)(F)F)ccc1-n1nccn1` [Example 45, 2-(2H-1,2,3-Triazol-2-yl)-5-(trifluoromethyl)-N-[(1S,2S)-2-{[5-(trifluoromethyl)pyrazin-2-yl]amino}cyclopentyl]benzamide] were greater than 10000 nM and 241 nM.
The corresponding values for `O=C(N[C@H]1CCC[C@@H]1Nc1cnc(C(F)(F)F)cn1)c1c(F)cccc1-n1cccn1` [Example 46, 2-Fluoro-6-(1H-pyrazol-1-yl)-N-[(1S,2S)-2-{[5-(trifluoromethyl)pyrazin-2-yl]amino}cyclopentyl]benzamide] are greater than 10000 nM and 172 nM.
Consider `O=C(N[C@H]1CCC[C@@H]1Nc1cnc(C(F)(F)F)cn1)c1cc(F)ccc1-n1cccn1` [Example 47, 5-Fluoro-2-(1H-pyrazol-1-yl)-N-[(1S,2S)-2-{[5-(trifluoromethyl)pyrazin-2-yl]amino}cyclopentyl]benzamide], for which the IC50 at human orexin receptor 2 is greater than 10000 nM; on human orexin receptor 1, 445 nM.
The corresponding values for `Cc1ccc(-n2cccn2)c(C(=O)N[C@H]2CCC[C@@H]2Nc2cnc(C(F)(F)F)cn2)c1` [Example 48, 5-Methyl-2-(1H-pyrazol-1-yl)-N-[(1S,2S)-2-{[5-(trifluoromethyl)pyrazin-2-yl]amino}cyclopentyl]benzamide] are greater than 10000 nM and 88 nM.
The corresponding values for `COc1cccc(-n2cccn2)c1C(=O)N[C@H]1CCC[C@@H]1Nc1cnc(C(F)(F)F)cn1` [Example 50, 2-Methoxy-6-(1H-pyrazol-1-yl)-N-[(1S,2S)-2-{[5-(trifluoromethyl)pyrazin-2-yl]amino}cyclopentyl]benzamide] are greater than 10000 nM and 80 nM.
The corresponding values for `O=C(N[C@H]1CCC[C@@H]1Nc1cnc(C(F)(F)F)cn1)c1ncccc1N1CCCCC1` [Example 51, 3-(Piperidin-1-yl)-N-[(1S,2S)-2-{[5-(trifluoromethyl)pyrazin-2-yl]amino}cyclopentyl]pyridine-2-carboxamide] are greater than 10000 nM and 301 nM.
With `O=C(N[C@H]1CCC[C@@H]1Nc1cnc(C(F)(F)F)cn1)c1cc(Cl)ccc1-n1nccn1` [Example 52, 5-Chloro-2-(2H-1,2,3-triazol-2-yl)-N-[(1S,2S)-2-{[5-(trifluoromethyl)pyrazin-2-yl]amino}cyclopentyl]benzamide], the IC50 on human orexin receptor 2 is greater than 10000 nM; on human orexin receptor 1, 69 nM.
The corresponding values for `O=C(N[C@H]1CCC[C@@H]1Nc1cnc(C(F)(F)F)cn1)c1cccc(F)c1-n1nccn1` [Example 53, 3-Fluoro-2-(2H-1,2,3-triazol-2-yl)-N-[(1S,2S)-2-{[5-(trifluoromethyl)pyrazin-2-yl]amino}cyclopentyl]benzamide] are greater than 10000 nM and 93 nM.
Taken in the same sequence, the figures for `O=C(N[C@H]1CCC[C@@H]1Nc1cnc(C(F)(F)F)cn1)c1cc(C(F)(F)F)ccc1-n1ccnn1` [Example 54, 2-(1H-1,2,3-Triazol-1-yl)-5-(trifluoromethyl)-N-[(1S,2S)-2-{[5-(trifluoromethyl)pyrazin-2-yl]amino}cyclopentyl]benzamide] were greater than 10000 nM and 950 nM.
Taken in the same sequence, the figures for `O=C(N[C@H]1CCC[C@@H]1Nc1cnc(C(F)(F)F)cn1)c1cc(Cl)ccc1-n1ccnn1` [Example 55, 5-Chloro-2-(1H-1,2,3-triazol-1-yl)-N-[(1S,2S)-2-{[5-(trifluoromethyl)pyrazin-2-yl]amino}cyclopentyl]benzamide] were greater than 10000 nM and 761 nM.
For `O=C(N[C@H]1CCC[C@@H]1Nc1cnc(C(F)(F)F)cn1)c1c(-n2nccn2)ccc(F)c1F` [Example 56, 2,3-Difluoro-6-(2H-1,2,3-triazol-2-yl)-N-[(1S,2S)-2-{[5-(trifluoromethyl)pyrazin-2-yl]amino}cyclopentyl]benzamide], the IC50 at human orexin receptor 2 was greater than 10000 nM; at human orexin receptor 1, 166 nM.
Taken in the same sequence, the figures for `O=C(N[C@H]1CCC[C@@H]1Nc1cnc(C(F)(F)F)cn1)c1cc(C2CC2)ccc1-n1nccn1` [Example 57, 5-Cyclopropyl-2-(2H-1,2,3-triazol-2-yl)-N-[(1S,2S)-2-{[5-(trifluoromethyl)pyrazin-2-yl]amino}cyclopentyl]benzamide] were greater than 10000 nM and 38 nM.
The corresponding values for `O=C(N[C@H]1CCC[C@@H]1Nc1cnc(C(F)(F)F)cn1)c1ncccc1OC(F)(F)F` [Example 58, 3-(Trifluoromethoxy)-N-[(1S,2S)-2-{[5-(trifluoromethyl)pyrazin-2-yl]amino}cyclopentyl]pyridine-2-carboxamide] are greater than 10000 nM and 934 nM.
The corresponding values for `O=C(N[C@H]1CCC[C@@H]1Nc1cnc(C(F)(F)F)cn1)c1cc(Cl)ccc1-n1cccn1` [Example 59, 5-Chloro-2-(1H-pyrazol-1-yl)-N-[(1S,2S)-2-{[5-(trifluoromethyl)pyrazin-2-yl]amino}cyclopentyl]benzamide] are greater than 10000 nM and 161 nM.

One may read the IC50 as the concentration that inhibits the measured activity by half.
